Results as given in ChEMBL document CHEMBL2417454, “Oxazolopyridines and thiazolopyridines as monoamine oxidase B inhibitors for the treatment of Parkinson's disease” (Bioorg Med Chem, 2013).

Key:
[1] = biological target: T1, Amine oxidase [flavin-containing] B (Homo sapiens, UniProt P27338); experiment: Inhibition of human recombinant MAO-B using benzylamine hydrochloride as substrate assessed as H2O2 synthesis at 10 uM after 1 hr by fluorescence assay; details: read-out: INH
T1 sequence (P27338 whole entry): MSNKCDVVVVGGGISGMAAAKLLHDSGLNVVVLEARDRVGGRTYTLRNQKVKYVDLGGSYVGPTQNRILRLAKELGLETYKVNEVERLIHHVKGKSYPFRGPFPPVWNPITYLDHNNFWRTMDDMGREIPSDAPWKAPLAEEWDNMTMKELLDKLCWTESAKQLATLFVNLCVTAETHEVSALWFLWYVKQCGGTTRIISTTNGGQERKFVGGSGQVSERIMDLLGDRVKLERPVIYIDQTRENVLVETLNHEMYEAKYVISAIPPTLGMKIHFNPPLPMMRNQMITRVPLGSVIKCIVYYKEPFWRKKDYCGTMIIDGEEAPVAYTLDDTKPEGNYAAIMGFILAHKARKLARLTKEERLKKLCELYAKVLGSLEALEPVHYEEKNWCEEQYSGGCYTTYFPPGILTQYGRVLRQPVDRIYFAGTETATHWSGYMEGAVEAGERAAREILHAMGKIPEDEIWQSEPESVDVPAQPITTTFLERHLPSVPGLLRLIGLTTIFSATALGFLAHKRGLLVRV

[2] = biological target: T1, Amine oxidase [flavin-containing] B; experiment: Inhibition of human recombinant MAO-B using benzylamine hydrochloride as substrate assessed as H2O2 synthesis after 1 hr by fluorescence assay

Compound | inhibition at 10 µM [1] [%] | IC50 [2] [nM]
Fc1cccc(-c2nc3ccc(N4CCCCC4)nc3o2)c1 | 89.7 | –
c1ccc(-c2nc3ccc(N4CCCCC4)nc3o2)cc1 | 86.8 | 1370
Fc1ccc(-c2nc3ccc(N4CCCCC4)nc3o2)cc1 | 93.4 | 270
c1ccc(-c2nc3ccc(NC4CCCCC4)nc3o2)cc1 | 79.1 | 2540
CNc1ccc2nc(-c3ccccc3)oc2n1 | 19 | –
Clc1ccccc1-c1nc2ccc(N3CCCCC3)nc2o1 | 96.3 | 267
Clc1ccc(-c2nc3ccc(N4CCCCC4)nc3o2)cc1 | 69.8 | 890
c1ccc(-c2nc3ccc(N4CCCCC4)nc3s2)cc1 | 95.5 | 356
CN(Cc1ccccc1)c1ccc2nc(-c3ccccc3)oc2n1 | 3.7 | –
c1ccc(-c2nc3ccc(N4CCCCCC4)nc3o2)cc1 | 57.9 | –
Fc1ccccc1-c1nc2ccc(N3CCCCC3)nc2o1 | 94.9 | 665
c1ccc(CNc2ccc3nc(-c4ccccc4)oc3n2)cc1 | 4.8 | –
Clc1ccccc1-c1nc2ccc(N3CCCCC3)nc2s1 | 95.1 | 171
Fc1ccc(-c2nc3ccc(N4CCCCC4)nc3s2)cc1 | 92.7 | 26.5
Clc1ccc(-c2nc3ccc(N4CCCCC4)nc3s2)cc1 | 84.2 | 358
Clc1cccc(-c2nc3ccc(N4CCCCC4)nc3o2)c1 | 91.7 | 335
